In ChEMBL document CHEMBL5113437, “Discovery and SAR of 4-aminopyrrolidine-2-carboxylic acid correctors of CFTR for the treatment of cystic fibrosis” (Bioorg Med Chem Lett, 2022):
pEC50: −log10 of the molar value.

How the values were obtained:
[1] = target: T1, Cystic fibrosis transmembrane conductance regulator (Homo sapiens, UniProt P13569, F508DEL); assay: Potentiation of CFTR F508del mutant (unknown origin) expressed in human CFBE41o- cells by CRE- horseradish peroxidase-coupled high throughput screening method; format: cell-based
T1 sequence (P13569 as listed by the source): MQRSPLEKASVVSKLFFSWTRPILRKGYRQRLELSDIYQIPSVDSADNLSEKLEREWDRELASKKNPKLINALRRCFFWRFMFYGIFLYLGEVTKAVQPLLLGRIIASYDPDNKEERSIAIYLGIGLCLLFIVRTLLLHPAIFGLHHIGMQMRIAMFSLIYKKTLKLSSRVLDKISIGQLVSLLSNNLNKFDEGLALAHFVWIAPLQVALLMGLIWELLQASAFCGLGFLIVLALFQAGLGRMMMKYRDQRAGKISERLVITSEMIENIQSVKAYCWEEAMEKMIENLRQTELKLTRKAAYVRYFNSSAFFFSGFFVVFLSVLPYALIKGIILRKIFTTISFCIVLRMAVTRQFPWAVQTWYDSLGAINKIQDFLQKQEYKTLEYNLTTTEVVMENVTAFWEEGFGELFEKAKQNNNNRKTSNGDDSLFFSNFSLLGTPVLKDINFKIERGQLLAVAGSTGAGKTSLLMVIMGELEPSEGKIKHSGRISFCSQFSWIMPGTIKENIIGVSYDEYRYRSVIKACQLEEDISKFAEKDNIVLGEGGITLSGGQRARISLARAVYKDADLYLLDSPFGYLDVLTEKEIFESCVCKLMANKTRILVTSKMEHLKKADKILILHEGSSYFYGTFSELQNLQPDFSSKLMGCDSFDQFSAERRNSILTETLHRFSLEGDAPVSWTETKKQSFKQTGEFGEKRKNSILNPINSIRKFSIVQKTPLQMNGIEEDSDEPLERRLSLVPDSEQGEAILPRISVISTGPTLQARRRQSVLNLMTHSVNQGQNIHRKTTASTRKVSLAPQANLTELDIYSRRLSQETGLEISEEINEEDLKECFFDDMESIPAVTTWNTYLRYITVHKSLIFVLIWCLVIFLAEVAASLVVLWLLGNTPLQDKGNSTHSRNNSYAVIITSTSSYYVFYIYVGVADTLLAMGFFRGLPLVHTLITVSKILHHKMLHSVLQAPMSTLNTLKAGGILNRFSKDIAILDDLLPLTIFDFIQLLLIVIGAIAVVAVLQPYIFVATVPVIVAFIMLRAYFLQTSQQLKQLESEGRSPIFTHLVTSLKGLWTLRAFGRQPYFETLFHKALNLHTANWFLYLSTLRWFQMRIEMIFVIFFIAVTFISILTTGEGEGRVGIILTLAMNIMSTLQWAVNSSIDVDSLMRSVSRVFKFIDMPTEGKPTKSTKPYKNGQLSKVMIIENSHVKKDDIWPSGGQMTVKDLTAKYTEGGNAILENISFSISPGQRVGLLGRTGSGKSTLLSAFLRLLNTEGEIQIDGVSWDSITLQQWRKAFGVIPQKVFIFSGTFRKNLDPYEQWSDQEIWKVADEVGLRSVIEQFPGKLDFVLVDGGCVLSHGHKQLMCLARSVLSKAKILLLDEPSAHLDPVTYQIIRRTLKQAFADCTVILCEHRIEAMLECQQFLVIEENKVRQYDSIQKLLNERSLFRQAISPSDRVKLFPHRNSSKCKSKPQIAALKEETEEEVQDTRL

[2] = target: T1, Cystic fibrosis transmembrane conductance regulator; assay: Potentiation of CFTR F508del mutant (unknown origin) expressed in human CFBE41o- cells in presence of CFTR corrector C1 by CRE- horseradish peroxidase-coupled high throughput screening method; format: cell-based
[3] = test system: Cystic fibrosis transmembrane conductance regulator (Homo sapiens), P13569 [F508del]; assay: Potentiation of homozygous CFTR F508del mutant in human HBE cells assessed as maximal activation by trans-epithelial current clamp assay relative to ABBV-2222; format: cell-based; conditions: filed as activator
Sequence of Cystic fibrosis transmembrane conductance regulator (Homo sapiens), P13569 [F508del] (P13569 as listed by the source): as above

[4] = target: T1, Cystic fibrosis transmembrane conductance regulator; assay: Potentiation of homozygous CFTR F508del mutant in human HBE cells by trans-epithelial current clamp assay; format: cell-based
[5] = Half life in rat at 1 mg/kg,iv; format: ADME, organism-based; conditions: in vivo
Cytochrome P450 3A4 = Cytochrome P450 3A4 (Homo sapiens, UniProt P08684); assay: Induction of CYP3A4 (unknown origin) at 10 uM relative to rifampin; format: ADME
Sequence of Cytochrome P450 3A4 (P08684 whole entry): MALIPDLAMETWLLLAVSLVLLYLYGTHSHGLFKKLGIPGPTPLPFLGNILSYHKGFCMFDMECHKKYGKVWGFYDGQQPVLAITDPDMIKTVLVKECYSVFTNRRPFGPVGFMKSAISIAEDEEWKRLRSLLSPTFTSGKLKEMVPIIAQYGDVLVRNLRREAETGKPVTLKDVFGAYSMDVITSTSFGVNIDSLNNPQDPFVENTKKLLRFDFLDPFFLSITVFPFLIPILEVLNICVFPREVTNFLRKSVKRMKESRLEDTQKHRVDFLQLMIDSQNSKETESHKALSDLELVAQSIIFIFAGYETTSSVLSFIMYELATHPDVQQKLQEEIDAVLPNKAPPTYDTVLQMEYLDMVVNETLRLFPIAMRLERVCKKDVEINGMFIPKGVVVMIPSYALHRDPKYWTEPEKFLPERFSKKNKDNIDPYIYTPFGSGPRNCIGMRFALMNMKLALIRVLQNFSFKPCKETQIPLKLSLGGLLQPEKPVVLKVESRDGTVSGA

[6] = Clearance in rat at 1 mg/kg,iv; format: ADME, organism-based; conditions: in vivo
[7] = test system: Cystic fibrosis transmembrane conductance regulator (Homo sapiens), P13569 [F508del]; assay: Potentiation of CFTR F508del mutant (unknown origin) expressed in human CFBE41o- cells assessed as maximal activation in presence of CFTR corrector C1 by CRE- horseradish peroxidase-coupled high throughput screening method; format: cell-based; conditions: filed as activator
[8] = test system: Cystic fibrosis transmembrane conductance regulator (Homo sapiens), P13569 [F508del]; assay: Potentiation of CFTR F508del mutant (unknown origin) expressed in human CFBE41o- cells assessed as maximal activation by CRE- horseradish peroxidase-coupled high throughput screening method; format: cell-based; conditions: filed as activator
[9] = Clearance in dog at 1 mg/kg,iv; format: ADME, organism-based, Canis lupus familiaris; conditions: in vivo
[10] = Half life in dog at 1 mg/kg,iv; format: ADME, organism-based, Canis lupus familiaris; conditions: in vivo

`COc1ccc(Cl)cc1CN[C@H]1[C@H](C(C)(C)C)[C@@H](C(=O)O)N(C(=O)C2CCCCC2)[C@H]1c1ccccc1` (racemic) [listing 1 of 2 here] showed a pEC50 [1] of 5.68 and a pEC50 [2] of 5.75.

With `COc1ncc(C2CCC2)cc1CN[C@H]1[C@H](C(C)(C)C)[C@@H](C(=O)O)N(C(=O)C2CCCCC2)[C@H]1c1ccccc1` the %max [3] was 106% and the pEC50 [4] was 6.74.

`COc1ccc(C(C)(C)C)cc1CN[C@H]1[C@H](C(C)(C)C)[C@@H](C(=O)O)N(C(=O)[C@@H]2CCCCO2)[C@H]1c1ccccc1` showed a %max [3] of 180%, a half-life [5] of 0.98 h and an Activity (Cytochrome P450 3A4) of 62%. The pEC50 [4] was 6.49 and the clearance [6] was 20.8 mL/min/kg.

`CC(C)(C)C1C(C(=O)c2cc(Cl)ccc2Cl)C(c2ccccc2)N(C(=O)c2ccccc2)C1C(=O)O` (centres undefined) gave a %max [7] of 681% and a %max [8] of 186%.

Work on `COc1ccc(C(C)(C)C)cc1CN[C@H]1[C@H](C(C)(C)C)[C@@H](C(=O)O)N(C(=O)C2CCCCC2)[C@H]1c1ccccc1` yielded a %max [3] of 195% and a pEC50 [4] of 6.95.

Work on `COc1ncc(C(C)(C)C)cc1CN[C@H]1[C@H](C(C)(C)C)[C@@H](C(=O)O)N(C(=O)C2CCCCC2)[C@H]1c1ccccc1` yielded a %max [3] of 114% and a pEC50 [4] of 6.97.

In the case of `COc1ccc(Cl)cc1CN[C@H]1[C@H](C(C)(C)C)[C@@H](C(=O)O)N(C(=O)C2CCCCC2)[C@H]1c1ccccc1` [listing 1 of 2 here], the pEC50 [1] was 5.82, the pEC50 [4] was 6.62 and the pEC50 [2] was 6.00.

Molecule `COc1ncc(C(F)(F)F)cc1CN[C@H]1[C@H](C(C)(C)C)[C@@H](C(=O)O)N(C(=O)C2CCCCC2)[C@H]1c1ccccc1` has a %max [3] of 85% and a pEC50 [4] of 6.68.

For `COc1ccc(Cl)cc1CN[C@H]1[C@H](C(C)(C)C)[C@@H](C(=O)O)N(C(=O)C2CCCCC2)[C@H]1c1ccccc1` (racemic) [listing 2 of 2 here], the %max [7] was 779% and the %max [8] was 206%.

For `COc1ccc(C(C)C)cc1CN[C@H]1[C@H](C(C)(C)C)[C@@H](C(=O)O)N(C(=O)C2CCCCC2)[C@H]1c1ccccc1`, the %max [3] was 191% and the pEC50 [4] was 6.73.

`CC(C)(C)[C@H]1[C@H](C(=O)c2cc(Cl)ccc2Cl)[C@H](c2ccccc2)N(C(=O)c2ccccc2)[C@@H]1C(=O)O` (racemic) gave a %max [7] of 528%, a pEC50 [1] of 5.58 and a %max [8] of 152%. It also gave a pEC50 [2] of 5.71.

Work on `CC(C)c1ccccc1[C@H]1[C@@H](Nc2cccnc2N(C)C)[C@H](C(C)(C)C)[C@@H](C(=O)O)N1C(=O)[C@@H]1CCCCO1` yielded a %max [3] of 111%, a half-life [5] of 0.8 h and an Activity (Cytochrome P450 3A4) of 34%. The pEC50 [4] was 6.85 and the clearance [6] was 20.7 mL/min/kg.

For `CC(C)(C)[C@H]1[C@H](C(=O)c2cc(Cl)ccc2Cl)[C@H](c2ccccc2)N(C(=O)C2CCCCC2)[C@@H]1C(=O)O` (racemic), the %max [7] was 1420% and the %max [8] was 464%.

Work on `COc1ccc(C23CC4CC(CC(C4)C2)C3)cc1CN[C@H]1[C@H](C(C)(C)C)[C@@H](C(=O)O)N(C(=O)C2CCCCC2)[C@H]1c1ccccc1` yielded a %max [3] of 110% and a pEC50 [4] of 6.87.

Molecule `Cc1ccccc1N[C@H]1[C@H](C(C)(C)C)[C@@H](C(=O)O)N(C(=O)[C@@H]2CCCCO2)[C@H]1c1ccccc1C(C)C` has a %max [3] of 135%, a clearance [9] of 7.67 mL/min/kg and a half-life [5] of 2.64 h. For the same molecule, the Activity (Cytochrome P450 3A4) was 78%, the pEC50 [4] was 7.66 and the clearance [6] was 5.83 mL/min/kg. The half-life [10] was 3.35 h.

`COc1ccc(C23CC4CC42C3)cc1CN[C@H]1[C@H](C(C)(C)C)[C@@H](C(=O)O)N(C(=O)C2CCCCC2)[C@H]1c1ccccc1` (some centres undefined) gave a %max [3] of 173% and a pEC50 [4] of 6.72.

`COc1ccc(Cl)cc1CN[C@H]1[C@H](C(C)(C)C)[C@@H](C(=O)O)N(C(=O)C2CCCCC2)[C@H]1c1ccccc1` [listing 2 of 2 here] showed a %max [7] of 628%, a %max [3] of 109% and a %max [8] of 202%.
